For one assay, the system named is LN18 cells. Description: Cell proliferation / viability assay, LN18. In kind it is cell-based, Human. The conditions noted are these: Supplementary Figure 8c. How it is done: Cells were seeded into 12-well plates at a density of 1 × 10^4 cells per well. Manual cell counting was carried out at the indicated times using trypan blue and a haemocytometer.
(§1) To determine the antitumour effect of the peptide in vitro, the peptide was incubated with cells for 24 h when the cells were grown to approximately 80% confluence. Cell viability was measured at the indicated time points. The cell lysates were collected for immunoprecipitation as described above. To determine the antitumour effect of the peptide in vivo, the peptide was stereotactically injected using identical coordinates of tumour implantation in 3 μl of PBS. Briefly, 3 weeks after intracranial tumour cell implantation, mice with similar tumour sizes and similar weights were selected and randomly arranged into five groups (n = 6): PBS, PepC (0.25 mg/kg TAT-PepC per injection), Pep9 low dose (Pep9 L, 0.05 mg/kg TAT-Pep9 per injection), Pep9 medium dose (Pep9 M, 0.1 mg/kg TAT-Pep9 per injection), and Pep9 high dose (Pep9 H, 0.25 mg/kg TAT-Pep9 per injection). Each mouse received intratumoural injection every 10 days (at Day 21, Day 31, Day 41, and Day 51), and tumour growth was monitored at Day 21, Day 41, and Day 56. The experiment was terminated at Day 80, and all the mice (if they were alive) were sacrificed as previously described.

Assay [1] has as its system nude mice with intracranially implanted tumour cells. Description: Survival of nude mice with intracranial tumour after intratumoural peptide. In kind it is in vivo, BALB/c nude mice. The following applies: 0.25 mg/kg per injection (PepC, Pep9 H). How it is done: BALB/c nude mice were maintained and bred in a specific-pathogen free (SPF) environment, adhering to standard conditions of temperature (20–26 °C) and humidity (40–70%). They were subjected to a strict 12-h light cycle, with lights on at 08:00 a.m. and off at 08:00 p.m. No limitations were imposed on the sex of the experimental animals involved in this study. Cells expressing firefly luciferase mixed with Matrigel (Corning, NY, USA) were intracranially injected into 5- to 6-week-old female athymic nude mice. The intracranial injection point was at the cerebral cortex, 1 mm prior to coronal suture, 1 mm on the right side of the centreline, and 3 mm below the dura mater. Appropriate medications were provided to reduce pain. To monitor intracranial tumour growth, the animals were intraperitoneally injected with D-luciferin (Yeasen, #40902ES01) and anaesthetized with isoflurane. The images were captured using an In Vivo MS FX pro Imaging System (Bruker, MA, USA) or IVIS Lumina imaging station (Perkin Elmer, MA, USA). The results were reported as the total flux (photons/second). The mice were sacrificed at the indicated time points. The brains were removed, fixed in 4% paraformaldehyde, and embedded in paraffin.
as §1

On to “SAEGYQYRALYD [Pep1, peptide found on the p85α SH3 domain; selected as the control named PepC]”, for which the Relative cell viability with LN18 cells (5 μM, replicate 1) was 0.95; in the assay on LN18 cells (5 μM, replicate 2), 0.92; in the assay on LN18 cells (5 μM, replicate 3) it was 0.93; in the assay on LN18 cells (10 μM, replicate 1), 0.92; in the assay with LN18 cells (10 μM, replicate 2) it was 0.95; in the assay on LN18 cells (10 μM, replicate 3) it was 0.90. The Relative cell viability in the assay on LN18 cells (20 μM, replicate 1) is 0.95; in the assay on LN18 cells (20 μM, replicate 2), 0.92; with LN18 cells (20 μM, replicate 3), 0.90; in the assay on LN18 cells (30 μM, replicate 1), 0.92; in the assay on LN18 cells (30 μM, replicate 2), 0.88; with LN18 cells (30 μM, replicate 3) it was 0.94. Further, the nude mice survival in assay [1] (terminated Day 80, mouse 1) was 60 days; in assay [1] (terminated Day 80, mouse 2), 61 days; in assay [1] (terminated Day 80, mouse 3, >= is status 0 (live)) it was 59 days; in assay [1] (terminated Day 80, mouse 4, >= is status 0 (live)), 58 days; in assay [1] (terminated Day 80, mouse 5, >= is status 0 (live)), 58 days; in assay [1] (terminated Day 80, mouse 6, >= is status 0 (live)), 62 days.

The record behind these values is paper PMC10539329, “NLRP6 potentiates PI3K/AKT signalling by promoting autophagic degradation of p85α to drive tumorigenesis” (Nature Communications, 2023).
